We go through two compounds from patent US7202339B2, “Crystals of MarR polypeptides, regulators of multiple antibiotic resistance” (Trustees of Tufts College, priority 2001, dated 2007).

Test [1] has as its target T1, MarR (Escherichia coli, UniProt P27245). The conditions noted are these: at millimolar concentrations; cited from earlier work.
Test [2] has as its target T1, MarR. The conditions noted are these: at millimolar concentrations; cited from earlier work. This is another data set of the same source.
The target of test [3] is MarR, regulator of multiple antibiotic resistance of Escherichia coli (wild type, expressed from pMarR-WT) (Escherichia coli). Description: X-ray co-crystal structure of MarR dimer with salicylate.

T1 sequence (P27245 whole entry): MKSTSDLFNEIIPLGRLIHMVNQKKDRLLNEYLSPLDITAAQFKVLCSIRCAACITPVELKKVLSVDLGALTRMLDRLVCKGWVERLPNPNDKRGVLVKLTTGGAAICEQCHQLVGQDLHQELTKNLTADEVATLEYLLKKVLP

As for `O=C([O-])c1ccccc1O.[Na+]` [sodium salicylate], the “inhibition of MarR activity in vitro” value at MarR [1] is given as “inhibit MarR activity”. Also, at MarR [2], the “inhibition of MarR activity in whole cells” value is listed as “inhibit MarR activity”.
Turning to “MarR, regulator of multiple antibiotic resistance of Escherichia coli (wild type, expressed from pMarR-WT)”, in test [3], the buried surface area (N-/C-terminal hydrophobic core) came to 3570 Å^2 and the total buried surface area was determined as 3700 Å^2.
